Entries after “also recorded” stand apart in the source; their conditions may differ.
Legend:
[1] = target: T1, α5GABAARs (Mus musculus, UniProt P22723+Q8BHJ7); test: Fear conditioning after IL-1β or LPS injection; assay type: in vivo, mice
Procedure: Pavlovian fear-conditioning tasks were used for behavioral analysis^29. LPS (125 μg kg^−1, i.p., with physiological saline as the vehicle control) or IL-1β (1 μg kg^−1, i.p., with 0.1% bovine serum albumin as the vehicle control) was injected into male 3- to 4-month-old WT and Gabra5−/− mice 3 h before conditioning. The intensity of the electric footshock was 0.5 mA. For some mice, the inverse agonist L-655,708 (0.35 or 0.5 mg kg^−1, i.p.) or vehicle control (10% DMSO, i.p.) was injected 30 min before training. The movement of the mouse was monitored. The percentage of time that each mouse spent in a freezing position was determined using FreezeView software (Version 2.26, Actimetrics Inc, Wilmette, Ill., USA).
We have determined that IL-1β-induced impairment of contextual fear memory can be reversed by pharmacological inhibition of α5GABAA receptors by the inverse agonist MRK-016. Fear conditioning was performed 3 h after injection of IL-1β (1 μg kg^−1, i.p.) in both wild-type (WT) and α5GABAA receptor knock out (Gabra5−/−) mice. Mice were trained to associate a context (contextual fear) and a tone (cued fear) with an aversive electric footshock. 24 h after conditioning each mouse was placed in the training context, and contextual fear memory was measured as the percentage of time spent freezing. Cued fear memory was measured 48 h after training as the percentage of time spent freezing to the conditioned auditory tone in a novel context.

[2] = target: T2, α5GABAA receptors (Homo sapiens, UniProt P18507+P31644); conditions: cited from earlier work
T2 sequence (P31644 32-462): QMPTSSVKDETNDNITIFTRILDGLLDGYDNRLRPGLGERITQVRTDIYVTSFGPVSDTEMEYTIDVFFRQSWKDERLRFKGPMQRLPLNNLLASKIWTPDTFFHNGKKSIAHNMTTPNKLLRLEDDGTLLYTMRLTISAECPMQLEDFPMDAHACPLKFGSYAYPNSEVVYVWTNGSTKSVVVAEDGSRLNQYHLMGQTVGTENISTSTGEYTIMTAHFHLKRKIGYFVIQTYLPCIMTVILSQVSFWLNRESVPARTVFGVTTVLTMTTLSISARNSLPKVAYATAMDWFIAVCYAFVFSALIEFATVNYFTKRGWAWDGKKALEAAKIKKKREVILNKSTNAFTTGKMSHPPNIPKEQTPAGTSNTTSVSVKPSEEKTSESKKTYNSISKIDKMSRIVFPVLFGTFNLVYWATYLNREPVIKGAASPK
T2 sequence (P28472 26-473 partner): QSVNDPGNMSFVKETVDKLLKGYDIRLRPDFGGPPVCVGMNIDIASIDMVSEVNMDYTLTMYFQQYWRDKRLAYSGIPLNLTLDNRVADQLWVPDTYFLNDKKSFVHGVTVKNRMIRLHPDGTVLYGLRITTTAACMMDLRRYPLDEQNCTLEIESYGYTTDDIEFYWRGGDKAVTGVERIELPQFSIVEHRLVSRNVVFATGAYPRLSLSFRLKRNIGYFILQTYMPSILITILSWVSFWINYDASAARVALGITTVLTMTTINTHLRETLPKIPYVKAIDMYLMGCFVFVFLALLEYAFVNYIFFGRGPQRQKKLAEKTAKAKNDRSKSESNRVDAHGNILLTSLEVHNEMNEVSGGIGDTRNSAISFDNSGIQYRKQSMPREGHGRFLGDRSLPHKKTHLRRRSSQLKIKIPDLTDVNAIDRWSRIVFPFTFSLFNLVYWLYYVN
T2 sequence (P18507 40-467 limits assumed): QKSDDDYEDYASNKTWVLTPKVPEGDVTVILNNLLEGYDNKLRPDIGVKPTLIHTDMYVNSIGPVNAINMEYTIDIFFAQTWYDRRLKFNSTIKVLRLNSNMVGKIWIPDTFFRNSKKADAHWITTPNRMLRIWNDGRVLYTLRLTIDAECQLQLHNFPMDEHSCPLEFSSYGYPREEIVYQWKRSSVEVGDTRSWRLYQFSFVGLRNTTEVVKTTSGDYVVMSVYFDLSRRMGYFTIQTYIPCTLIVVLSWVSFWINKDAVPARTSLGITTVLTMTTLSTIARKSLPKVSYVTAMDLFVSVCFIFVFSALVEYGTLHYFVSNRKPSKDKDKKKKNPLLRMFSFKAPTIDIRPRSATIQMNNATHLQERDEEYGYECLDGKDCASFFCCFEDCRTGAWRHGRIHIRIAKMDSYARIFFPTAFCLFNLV

[3] = test system: α5GABAA receptors; test: In vivo receptor occupancy of L-655,708 (literature); conditions: 0.7 mg/kg intraperitoneal, 30 min after injection
[4] = target: T1, α5GABAARs; test: Tonic inhibitory current, whole cell voltage-clamp in cultured hippocampal neurons; assay type: cell-based, mice; set-up: endogenous in cells; host or cells: primary embryonic mouse hippocampal neurons, alone or co-cultured with cortical microglia
[5] = cited from earlier work
[6] = Balance beam and tail flick 1 h after isoflurane; assay type: in vivo, mice; conditions: 1 h after isoflurane or vehicle
Procedure: Mice were gently held by the scruff and allowed free movement of the tail. The tip of the tail was inserted to about 1 cm depth into a beaker of water (49° C.). The latency for the mouse to remove its tail from the water was recorded and used as an indication of nociception. […] Indicators of motor coordination and mobility include the time for the mice to spontaneously cross the beam, and the number of times the hindfoot slipped off the beam. Average values of three repetitions for each mouse were reported.

[7] = cited from earlier work; remark: listed apart in the source
[8] = Core (rectal) temperature during anesthesia; assay type: in vivo, mice
Procedure: Mice were placed in the air-tight acrylic glass chamber for administration of the anesthetic; a rectal probe was inserted after the mice lost their righting reflex and rectal temperature was […] to measure temperature between 5 min and 1 h. The rectal probe was not inserted prior to the 5 min mark to ensure the mice were adequately anesthetized and not discomforted.

T1 sequence (Q8BHJ7 32-463 limits assumed): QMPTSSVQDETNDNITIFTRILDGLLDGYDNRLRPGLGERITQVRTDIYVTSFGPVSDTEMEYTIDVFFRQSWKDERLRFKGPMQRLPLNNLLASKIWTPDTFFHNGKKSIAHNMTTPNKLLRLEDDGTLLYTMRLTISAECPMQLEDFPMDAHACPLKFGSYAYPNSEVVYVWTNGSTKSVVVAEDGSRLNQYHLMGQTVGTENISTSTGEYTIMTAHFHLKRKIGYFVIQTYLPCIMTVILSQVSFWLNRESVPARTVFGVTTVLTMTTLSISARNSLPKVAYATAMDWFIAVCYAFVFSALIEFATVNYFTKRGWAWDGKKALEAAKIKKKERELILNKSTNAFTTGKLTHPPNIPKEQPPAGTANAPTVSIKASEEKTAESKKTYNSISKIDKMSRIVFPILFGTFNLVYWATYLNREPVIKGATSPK
T1 sequence (P63080 26-473 partner): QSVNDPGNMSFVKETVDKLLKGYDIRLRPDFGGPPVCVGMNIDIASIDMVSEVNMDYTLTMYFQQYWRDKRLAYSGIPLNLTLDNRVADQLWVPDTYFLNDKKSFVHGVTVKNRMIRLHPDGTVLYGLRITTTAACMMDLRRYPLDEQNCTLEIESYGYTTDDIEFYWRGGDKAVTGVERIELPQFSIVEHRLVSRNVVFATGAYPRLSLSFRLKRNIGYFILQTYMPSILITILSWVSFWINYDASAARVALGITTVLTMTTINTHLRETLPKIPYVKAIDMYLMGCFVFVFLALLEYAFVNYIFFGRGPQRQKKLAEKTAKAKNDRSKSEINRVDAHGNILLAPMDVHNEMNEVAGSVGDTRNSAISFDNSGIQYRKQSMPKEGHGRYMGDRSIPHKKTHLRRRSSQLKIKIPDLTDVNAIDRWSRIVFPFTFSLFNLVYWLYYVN
T1 sequence (P22723 39-474): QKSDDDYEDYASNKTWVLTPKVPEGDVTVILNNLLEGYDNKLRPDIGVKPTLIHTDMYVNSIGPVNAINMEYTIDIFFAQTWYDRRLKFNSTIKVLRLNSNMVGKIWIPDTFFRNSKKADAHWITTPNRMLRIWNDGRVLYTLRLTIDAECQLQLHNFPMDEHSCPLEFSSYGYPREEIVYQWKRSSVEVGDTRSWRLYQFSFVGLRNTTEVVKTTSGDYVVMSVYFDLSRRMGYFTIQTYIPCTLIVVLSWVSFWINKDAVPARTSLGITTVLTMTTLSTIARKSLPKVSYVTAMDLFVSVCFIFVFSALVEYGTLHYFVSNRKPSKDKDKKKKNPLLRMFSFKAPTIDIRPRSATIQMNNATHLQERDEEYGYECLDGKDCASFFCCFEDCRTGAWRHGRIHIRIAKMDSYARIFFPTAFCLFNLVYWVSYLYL

For `CCOC(=O)c1ncn2c1[C@@H]1CCCN1C(=O)c1cc(OC)ccc1-2` [L-655,708], the “contextual fear memory, WT mice (in words)” value ([1]; IL-1β 1 μg kg^−1 i.p. or LPS 125 μg kg^−1 i.p. 3 h before conditioning, inverse agonist co-administered) is listed as “attenuated the IL-1β-induced contextual fear memory deficits in WT mice; also recorded: restored freezing scores for contextual fear memory to control values”, the “cued fear memory to a conditioned tone stimulus (in words)” value ([1]; mouse, in vivo) is listed as “did not affect freezing to a conditioned tone stimulus” and the “affinity for α5GABAA receptors relative to other receptor subtypes” value [2] is listed as 50 fold. The “preference for α5GABAA receptors over α2 subunit-containing GABAA receptors” value [2] was 61 fold, the “preference for α5GABAA receptors over α3 subunit-containing GABAA receptors” value [2] was 54 fold and the “preference for α5GABAA receptors over α1 subunit-containing GABAA receptors” value ([2]; in vitro electrophysiological and biochemical studies) was 107 fold. The “estimated occupancy of α5GABAA receptors in vivo” value [3] was 60-70%, the inhibition at 0.02 µM ([4]; L-655,708 20 nM, n=11, read-out: inhibition of the IL-1β-enhanced tonic current) was 66.1% and the IL-1β-modulated tonic current ([4]; L-655,708 20 nM, n=12) was 69.2±4.4 % of control. The “effect on the tonic current (in words)” value ([4]; cultured hippocampal neurons) was “the tonic current is selectively inhibited; also recorded: reverses enhancement of the tonic current by the inhaled anaesthetics isoflurane and desflurane; also recorded: reverses the sevoflurane-induced increase in tonic inhibitory conductance generated by GABAA receptors”.
For `FC(F)OC(Cl)C(F)(F)F` (centres unmarked) [isoflurane], the “concentration required to impair the freezing response” value ([5]; administered during contextual fear learning) is given as 0.6%, the “concentration required for memory blockade during anesthesia” value ([5]; rat, in vivo) is given as 0.4% and the “threshold concentration that impaired memory performance during fear conditioning” value ([5]; rats) is given as 0.2%. The “balance beam crossing times and foot slips (in words)” value [6] was “No differences were observed between treatment groups”, the “latency to tail flick (in words)” value [6] was “No differences were detected in the latency to tail flick” and the “fraction that had left the brain” value ([7]; after 270 min of elimination following isoflurane 1.3% for 90 min) was 96%. The “elimination, initial fast component” value ([7]; humans) was 5 min, the “elimination, slower component” value ([7]; humans) was 15 min and the fraction metabolized ([7]; in vivo) was “less than 0.2%”. The “fraction recovered in expired gas” value ([7]; in vivo) was ~100%, the “fraction eliminated from the brain” value ([7]; within 270 min, laboratory animals) was 97% and the rectal temperature ([8]; 5 min after introduction into the anesthetic chamber) was 37.8±0.4 °C. For the same molecule, the rectal temperature ([8]; 1 h after induction) was 37.8±0.4 °C.
